Consider one molecule from patent US20060002922A1, “Method for preventing or treating obesity by modulating the activities of the pentose phosphate patway” (Minkon Biotechnology, Inc., priority 2004, published 2006).

The subject of data set [1] is tumors in animals. The settings on record: 100-400 mg/kg of OT; cited from earlier work.
The subject of data set [2] is C57BL/6 mice fed with D12492. In words: Diet-induced obesity in C57BL/6 mice fed high fat diet D12492, oral OT. The class given is in vivo. The protocol:
D12492 is a very high fat containing diet (with 60 kcal % fat), and has been widely used to induce obesity in rodents.
A dose of 10-20 mg/kg/day of OT was administered orally to C57BL/6 mice fed with D12492. […] In contrast, the control mice developed obesity.
4 groups of C57BL/6 mice (5 mice each group) were used to test the dosage dependence of oxythiamine on weight control. The negative control was fed a regular diet, and positive group was fed a high fat diet only. Test groups were fed high fat diet and each orally administered with OT at a concentration of 2 mg/kg/day or 10 mg/kg/day.

Data set [3] deals with liver, heart and kidney of mice hosting Ehrlich's tumor. The conditions noted are these: 400 mg/kg/day of OT; cited from earlier work.
For data set [4], the system named is normal as well as fatty mice. In words: Higher dosage of OT: weight loss in normal and fatty mice. It counts as in vivo. From the text:
This is consistent with the result obtained from the published result of TKT haplo-insufficiency mice.

For `Cc1ncc(C[n+]2csc(CCO)c2C)c(=O)[nH]1` [OT, Oxythiamine], the “treatment of tumors in animals” value in data set [1] is listed as “successfully used to treat tumors”. The “development of diet-induced obesity” value in data set [2] (10-20 mg/kg/day orally, C57BL/6 mice fed D12492, control mice developed obesity) is given as “Diet-induced obesity was not developed”. Also, in data set [2] (FIG. 1 study, high fat diet plus OT), the “pathological studies of OT treated mice” value is recorded as “near normal”. Also, in data set [2] (OT as low as 2 mg/kg/day), the “progression of obesity development” value is “reduce the progression of obesity development significantly”. Besides, in data set [2] (mice fed D12492, test groups 2 or 10 mg/kg/day orally), the “dosage dependence of prevention of weight gain” value was “dosage dependent effects on preventing weight gain”. Also, in data set [2] (mice fed D12492 plus OT), the “growth rate compared to same age mice fed a standard diet” value is “normal growth rate”. Besides, the “histotoxicity (signs of toxicity in liver, heart and kidney vs controls)” value in data set [3] is “No signs of toxicity were observed”. The “effect on body weight” value in data set [4] (180 mg/kg/day, normal as well as fatty mice) is “strong effect of weight loss”. Further, the fat mass result in data set [4] (OT fed mice) was “Preferential reduction of fat mass”.
